Several values for one entry are separate records, joined by “and”; a condition that tells them apart may be missing. Equal entries are not always repeated.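 Growth conditions: 96-well plates. Treatment: test compound, 48 hours, 5 concentrations. Analysis: linear interpolation between bracketing concentrations; unreached endpoints set to highest concentration. Abbreviation: GI50, concentration required for 50% inhibition of growth. Definition used: TGI = concentration required for complete inhibition of growth.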
Experiments:
Experiment in all cases: NCI anticancer screen, dose series, 48 h
[1] = test system: CAKI-1 renal
[2] = test system: OVCAR-5 ovarian
[3] = test system: A549 NSCLC
[4] = test system: SF-268 CNS
[5] = test system: NCI-H23 lung
[6] = test system: 786-0 renal
[7] = test system: HT29 colon
[8] = test system: NCI-H522 lung

Row | Structure (SMILES) | TGI [1] | TGI [2] | TGI [3] | TGI [4] | TGI [5] | TGI [6] [µM] | TGI [7] | TGI [8] [µM] | GI50 [2] | GI50 [3] | GI50 [4] | GI50 [5] | GI50 [8] [µM] | GI50 [6] [µM] | GI50 [7] | GI50 [1]
1 | Cc1ccc(C=NC23CC4CC(CC(C4)C2)C3)cc1 | > 100 µM | > 100 µM | > 100 µM | > 100 µM | > 100 µM | > 100 | > 100 µM |  |  |  |  |  |  |  |  | 
2 | Cc1ccccc1C(=O)Oc1ccc(OCc2ccccc2)cc1 |  | > 100 µM | > 100 µM | > 100 µM | > 100 µM | > 100 | > 100 µM |  |  |  |  |  |  |  |  | 
3 | OCC(O)C(O)C(O)c1nn(-c2ccccc2)c2nc3cc(Cl)c(Cl)cc3nc12 (stereo not given) | 56.7 µM | 83.6 µM | > 100 µM | > 100 µM | > 100 µM | > 100 | 57 µM | > 100 |  |  |  |  |  |  |  | 
4 | CC1(C(=O)O)CCOc2ccccc21 (stereo not given) | > 100 µM | > 100 µM | > 100 µM | > 100 µM | > 100 µM | > 100 | > 100 µM |  |  |  |  |  |  |  |  | 
5 | O=C1C(=O)N(c2nccs2)C(=O)C(=O)C1c1nc2ccccc2s1 | > 100 µM | > 100 µM | > 100 µM | > 100 µM | > 100 µM | > 100 | > 100 µM |  |  |  |  |  |  |  |  | 
6 | O=C(Nc1ccc(Br)cc1)C(=O)C(C(=O)c1ccccc1F)C1OC(=O)c2ccccc21 (stereo not given) | 94.2 µM | > 100 µM | > 100 µM | 71.5 µM | 43.6 µM | 56.8 | > 100 µM | 51.6 |  |  |  |  |  |  |  | 
7 | COc1nc2c(nc(N)n2C2OCC(O)C(O)C2O)c(=O)n1C (stereo not given) | > 100 µM |  | > 100 µM | > 100 µM | > 100 µM | > 100 | > 100 µM | > 100 |  |  |  |  |  |  |  | 
8 | CCOC(=O)c1ccc(N2C(=O)Cc3ccccc3C2=O)cc1 |  | > 100 µM | > 100 µM | > 100 µM | > 100 µM | > 100 | > 100 µM |  |  |  |  |  |  |  |  | 
9 | CC(=O)/C=C1\CC(=O)Nc2ccccc2N1 | > 100 µM | > 100 µM | > 100 µM | > 100 µM | > 100 µM | > 100 | > 100 µM |  |  |  |  |  |  |  |  | 
10 | CC(C)C(=O)[O-].CC(C)C(=O)[O-].N.N.N.N.[Co+3].[O-][Cl+3]([O-])([O-])[O-] |  | > 100 µM | > 100 µM | > 100 µM | > 100 µM | > 100 | > 100 µM | > 100 | > 100 µM | > 100 µM | > 100 µM | > 100 µM | > 100 | > 100 | > 100 µM | 
11 | COc1ccc2c(CCNC(=O)/C=C/c3ccccc3)c(C(C)=O)[nH]c2c1[N+](=O)[O-] | 44.5 µM |  | > 100 µM | 9.08 µM | 58 µM | > 100 | > 100 µM | 18.9 |  |  |  |  |  |  |  | 
12 | O=c1cccccc1[O-].O=c1cccccc1[O-].O=c1cccccc1[O-].[Ce+3] | > 100 µM | > 100 µM | > 100 µM |  | 86.1 µM | 55.2 | > 100 µM | 44.1 |  |  |  |  |  |  |  | 
13 | COc1cc(/C=C\c2ccc(Br)cc2)cc(OC)c1OC | 18.5 µM | 96.8 µM | > 100 µM | 54 µM |  | 13.7 | 15 µM | 0.00151 |  |  |  |  |  |  |  | 
14 | NCc1c(C(N)=O)ncn1Cc1ccccc1 | > 100 µM |  | > 100 µM |  | > 100 µM | > 100 | > 100 µM |  |  |  |  |  |  |  |  | 
15 | O=C(Nc1nc2ccc([N+](=O)[O-])cc2s1)C(=O)C(C(=O)c1ccncc1)C1OC(=O)c2ccccc21 (stereo not given) | > 100 µM | > 100 µM | > 100 µM | > 100 µM | > 100 µM | > 100 | > 100 µM |  |  |  |  |  |  |  |  | 
16 | CCOC(=O)N1C(c2ccccc2)C=CC(c2ccccc2)N1C(=O)OCC (stereo not given) | > 100 µM | > 100 µM | > 100 µM | > 100 µM | > 100 µM | > 100 | > 100 µM |  |  |  |  |  |  |  |  | 
17 | CCN(CC)c1ccc(N=C2C=C(Cl)C(=O)c3ncccc32)c(C)c1 | 12 µM |  | 48.5 µM |  | 11.3 µM | 12.2 | 30.2 µM |  |  |  |  |  |  |  |  | 
18 | CS(=O)(=O)N(CCC#N)c1ccc(C=O)cc1 | > 100 µM | > 100 µM | > 100 µM | > 100 µM |  | > 100 | > 100 µM | > 100 |  |  |  |  |  |  |  | 
19 | CC(=O)[O-].[Zn].c1ccc(/C(=N\Nc2ccccn2)c2ccccn2)cc1 | 6.33 µM |  | 5.48 µM | 3.13 µM | 19.3 µM | 2.16 | 4.13 µM | 2.06 |  | 0.447 µM | 0.421 µM |  | 0.131 | 0.366 | 1.09 µM | 
20 | CC1[C@@H]2CC=C3[C@H]4CCC5Cc6nc7c(nc6C[C@@]5(C)C4(O)CC(=O)[C@]32CO[C@]12OC(C)(C)CC2O)CC1CC[C@@H]2C3=C[C@H]4O[C@@]5(O[C@@](C)(CO)C[C@@H]5O)C(C)[C@@]4(O)[C@]3(C)[C@@H](O)CC2[C@]1(C)C7 (stereo not given in full) | 0.365 µM and > 3.6 µM | 0.426 µM and 0.118 µM | 0.223 µM and 1.12 µM | 0.309 µM and 0.672 µM | 0.143 µM and 0.377 µM | 0.0446 | 0.0486 µM and 0.0623 µM |  | 0.0142 µM and 0.00734 µM | 0.000294 µM and 0.00121 µM | 0.000194 µM and 0.00144 µM | 0.00071 µM and 0.00224 µM |  | 0.000142 | 0.000918 µM and 0.00123 µM | 0.000573 µM and 0.00463 µM
